The target in this test is T1, Prostaglandin E synthase (Homo sapiens, UniProt O14684).
T1 sequence (O14684 whole entry): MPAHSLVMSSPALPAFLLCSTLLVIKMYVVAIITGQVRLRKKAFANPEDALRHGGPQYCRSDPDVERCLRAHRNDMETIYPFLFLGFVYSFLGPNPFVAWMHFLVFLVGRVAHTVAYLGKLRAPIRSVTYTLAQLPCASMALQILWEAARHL
The experiment in a line: Inhibition Assay: mPGES-1 microsome fractions were prepared from CHO-K1 cells transiently transfected with plasmid encoding the human mPGES-1cDNA. Microsomes were diluted with potassium phosphate buffer containing reduced glutathione (pH7.4), and DMSO containing test compound or DMSO alone was added (such that DMSO final concentration would be 1% in each) and incubated at 4° C. for 20 minutes. Then, the enzymatic reactions were initiated by the addition of PGH2 substrate (final concentration 1 μM) and incubated at 4° C. for 60 seconds. The reaction was terminated by the addition of a citrate solution (final citrate concentration 50 mM) containing ferric chloride (final concentration 1 mg/mL). PGE2 production in the enzyme reaction aliquot was measured using HTRF kit (Cisbio International, catalogue #62P2APEC). Type of test: cell-based.

Structures are written as SMILES.

As for `O=C(Nc1cc(C(=O)NCc2ccccc2C(F)(F)F)c2nc[nH]c2c1)c1ccccc1C(F)(F)F`, it took 12.7 nM to reach half-maximal inhibition (IC50).
